Test results reported in patent US10538536B2, “Process for the preparation of 2-pyrazolo[1,5-a]pyrazin-2-ylpyrido[1,2-a]pyrimidin-4-one compounds” (Hoffmann-La Roche Inc., priority 2016, dated 2020).

Tests used:
[1] = genotoxicity of side-products of the process with compound (IIIa); details: side-products formed when compound (IIIa) is used
Text: According to the process herein described when compound (IIIa) is being used compounds of formulae (X) and (XI) may be produced as side-products, which are genotoxic: […]

[2] = relative stability of polymorphs Form A and Form F; type: physicochemical

Structure (SMILES) | genotoxicity [1] | drug product robustness ([2]; Form F) | relative thermodynamic stability of polymorphs (enantiotropically related) ([2]; at 80° C. or below, Form F versus Form A)
CCc1nc(C)cn2nc(-c3nc4c(C)cc(C5CCN(C)CC5)cn4c(=O)c3C(=O)CCl)cc12 [(XI)] | genotoxic | – | –
CCc1nc(C)cn2nc(-c3nc4c(C)cc(C5CCN(C)CC5)cn4c(=O)c3Cl)cc12 [(X)] | genotoxic | – | –
CCc1nc(C)cn2nc(-c3cc(=O)n4cc(C5CCN(C)CC5)cc(C)c4n3)cc12 [Form F, 2-(4-Ethyl-6-methyl-pyrazolo[1,5-a]pyrazin-2-yl)-9-methyl-7-(1-methyl-piperidin-4-yl)-pyrido[1,2-a]pyrimidin-4-one] | – | improve drug product robustness | more stable
